{"source": "ChEMBL document CHEMBL5096160", "about": "“Targeting SHP2 as a therapeutic strategy for inflammatory diseases” (Eur J Med Chem, 2021)", "key": {"[1]": {"target": "T1, Tyrosine-protein phosphatase non-receptor type 11 (Homo sapiens, UniProt Q06124)", "T1 sequence (Q06124 whole entry)": "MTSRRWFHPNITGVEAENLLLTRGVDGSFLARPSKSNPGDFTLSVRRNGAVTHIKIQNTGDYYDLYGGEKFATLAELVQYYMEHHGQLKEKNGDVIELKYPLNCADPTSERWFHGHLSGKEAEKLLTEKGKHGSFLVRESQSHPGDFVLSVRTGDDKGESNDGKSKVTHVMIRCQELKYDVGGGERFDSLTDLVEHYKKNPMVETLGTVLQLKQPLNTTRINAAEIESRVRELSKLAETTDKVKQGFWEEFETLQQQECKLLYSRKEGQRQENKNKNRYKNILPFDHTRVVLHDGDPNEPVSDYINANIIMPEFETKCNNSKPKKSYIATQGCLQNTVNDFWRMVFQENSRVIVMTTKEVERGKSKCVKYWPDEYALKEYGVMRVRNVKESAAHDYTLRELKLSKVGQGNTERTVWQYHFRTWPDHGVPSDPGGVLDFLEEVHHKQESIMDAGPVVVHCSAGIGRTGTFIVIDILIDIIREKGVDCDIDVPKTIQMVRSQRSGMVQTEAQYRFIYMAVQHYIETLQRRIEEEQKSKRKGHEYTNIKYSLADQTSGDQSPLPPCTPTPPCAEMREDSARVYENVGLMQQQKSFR", "experiment": "Inhibition of human recombinant SHP2 expressed in Escherichia coli using p-nitrophenyl phosphate as substrate preincubated for 2 mins followed by substrate addition by microplate spectrophotometer analysis"}, "[2]": {"target": "T1, Tyrosine-protein phosphatase non-receptor type 11", "experiment": "Inhibition of N-terminal 6His-tagged full-length H2N-VE(pY)LDLDLD(PEG8)RVD(pY)VVVDQQ-amide-activated SHP2 (247 to 529 residues) (unknown origin) expressed in Escherichia coli BL21 (DE3) using DiFMUP as substrate preincubated for 10 to 30 mins with activating peptide prior to compound addition for 30 mins followed by substrate addition and measured for 6 mins by fluorescence based assay"}, "[3]": {"test_system": "SW1463", "experiment": "Cytotoxicity against human SW1463 cells assessed as inhibition of cell growth incubated for 120 hrs by MTT assay", "format": "functional, cell-based", "conditions": "SW1463, 120 h"}, "[4]": {"target": "T2, Tyrosine-protein phosphatase non-receptor type 11 (Homo sapiens) (UniProt Q06124)", "T2 sequence (whole entry)": "T1 sequence (Q06124 whole entry)", "experiment": "Inhibition of SHP2 in human LS180 cells", "format": "cell-based"}, "[5]": {"target": "Tyrosine-protein phosphatase non-receptor type 11 (Mus musculus, UniProt P35235)", "sequence (P35235 2-593 limits assumed, change not shown)": "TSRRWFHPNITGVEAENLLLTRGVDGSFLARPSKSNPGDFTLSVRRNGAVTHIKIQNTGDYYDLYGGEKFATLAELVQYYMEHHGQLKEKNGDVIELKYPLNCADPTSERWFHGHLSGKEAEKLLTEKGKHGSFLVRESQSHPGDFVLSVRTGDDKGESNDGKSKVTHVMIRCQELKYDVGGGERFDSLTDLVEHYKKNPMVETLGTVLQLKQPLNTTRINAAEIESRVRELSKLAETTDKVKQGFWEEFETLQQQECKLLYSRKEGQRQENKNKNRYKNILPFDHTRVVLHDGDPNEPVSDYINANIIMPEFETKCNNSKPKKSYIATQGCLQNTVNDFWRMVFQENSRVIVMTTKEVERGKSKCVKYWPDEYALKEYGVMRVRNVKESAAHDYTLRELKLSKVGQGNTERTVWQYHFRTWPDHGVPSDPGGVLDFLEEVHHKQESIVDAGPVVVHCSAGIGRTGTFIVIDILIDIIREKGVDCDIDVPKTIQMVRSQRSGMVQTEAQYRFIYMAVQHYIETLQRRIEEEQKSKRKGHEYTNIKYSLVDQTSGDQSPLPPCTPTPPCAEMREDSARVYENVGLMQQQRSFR", "experiment": "Inhibition of SHP2 in mouse EMT6 cells harboring SOS1 mutation", "format": "cell-based"}, "[6]": {"target": "T2, Tyrosine-protein phosphatase non-receptor type 11 (Homo sapiens)", "experiment": "Inhibition of recombinant SHP2 (unknown origin)"}, "[7]": {"target": "T1, Tyrosine-protein phosphatase non-receptor type 11", "experiment": "Inhibition of SHP2 (unknown origin) using EFpYAEVGRSPPDPAK incubated for 0.5 hrs by malachite green reagent based assay"}, "[8]": {"target": "Tyrosine-protein phosphatase non-receptor type 6 (Homo sapiens) (UniProt P29350)", "sequence (P29350 whole entry)": "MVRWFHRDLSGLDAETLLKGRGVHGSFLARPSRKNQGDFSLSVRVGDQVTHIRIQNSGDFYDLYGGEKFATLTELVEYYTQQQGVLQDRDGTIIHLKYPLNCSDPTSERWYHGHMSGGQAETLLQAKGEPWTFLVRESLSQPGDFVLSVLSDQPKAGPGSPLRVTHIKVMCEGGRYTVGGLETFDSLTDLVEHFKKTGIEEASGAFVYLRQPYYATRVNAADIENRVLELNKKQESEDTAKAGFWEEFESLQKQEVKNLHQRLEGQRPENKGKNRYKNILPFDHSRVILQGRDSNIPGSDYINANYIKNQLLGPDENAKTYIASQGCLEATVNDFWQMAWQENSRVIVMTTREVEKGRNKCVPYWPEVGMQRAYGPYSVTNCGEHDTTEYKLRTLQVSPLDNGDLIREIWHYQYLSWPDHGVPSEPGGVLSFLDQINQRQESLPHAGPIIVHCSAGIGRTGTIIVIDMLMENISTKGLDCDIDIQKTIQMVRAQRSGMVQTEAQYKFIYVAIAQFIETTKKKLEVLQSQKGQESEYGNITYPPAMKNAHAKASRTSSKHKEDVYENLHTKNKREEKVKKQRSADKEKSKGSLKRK", "experiment": "Inhibition of SHP1 (unknown origin) using EFpYAEVGRSPPDPAK incubated for 0.5 hrs by malachite green reagent assay"}, "[9]": {"test_system": "BaF3", "experiment": "Cytotoxicity against mouse BaF3 cells assessed as inhibition of cell proliferation incubated for 48 hrs by MTT assay", "format": "functional, cell-based", "conditions": "BaF3, 48 h"}, "[10]": {"target": "T1, Tyrosine-protein phosphatase non-receptor type 11", "experiment": "Inhibition of recombinant human GST-tagged SHP2 expressed in Escherichia coli BL21 incubated for 30 mins by DiFMUP fluorescence assay"}, "[11]": {"test_system": "A549", "experiment": "Antiproliferative activity against human A549 cells assessed as inhibition of cell growth measured after 72 hrs by CCK-8 assay", "format": "functional, cell-based", "conditions": "A549, 72 h"}, "[12]": {"target": "T1, Tyrosine-protein phosphatase non-receptor type 11", "experiment": "Inhibition of N-terminal hexaHis-tagged catalytic domain of human SHP2 (248 to 527 residues) expressed as Escherichia coli Rosetta (DE3) using DiFMUP as substrate preincubated for 1 hr followed by substrate addition by fluorescence based analysis"}, "[13]": {"target": "T1, Tyrosine-protein phosphatase non-receptor type 11", "experiment": "Inhibition of GST-tagged SHP2 (unknown origin) using 8-difluoro-4-methylumbelliferyl phosphate as a substrate measured after 30 mins by fluorescence based analysis"}, "[14]": {"target": "T1, Tyrosine-protein phosphatase non-receptor type 11", "experiment": "Inhibition of human SHP2 catalytic domain expressed in Escherichia coli using p-nitrophenyl phosphate as substrate by spectrophotometric method"}, "[15]": {"experiment": "Cytotoxicity against human LN-444 cells assessed as reduction in cell viability incubated for 72 hrs by WST-1 assay", "format": "functional, cell-based", "conditions": "LN-444, 72 h"}, "[16]": {"test_system": "Capan-2", "experiment": "Cytotoxicity against human Capan-2 cells harbouring K-ras mutant assessed as reduction in cell viability incubated for 144 hrs", "format": "functional, cell-based", "conditions": "Capan-2, 144 h"}}, "data": [{"smiles": "CCOC(=O)c1sc(-c2ccc([N+](=O)[O-])cc2)nc1COc1ccc(Cl)cc1", "values": [{"measurement": "IC50", "setting": "[1]", "value": 4.3, "unit": "µM"}]}, {"smiles": "N[C@@H]1COCC12CCN(c1cnc3c(Sc4cccc(Cl)c4Cl)n[nH]c3n1)CC2", "values": [{"measurement": "IC50", "setting": "[2]", "value": 0.0021, "unit": "µM"}, {"measurement": "IC50", "setting": "[3]", "value": 0.59, "unit": "µM"}, {"measurement": "MIC", "setting": "[4]", "value": 10, "unit": "µM"}]}, {"smiles": "Cc1nc(N2CCC3(CC2)CO[C@@H](C)[C@H]3N)c(CO)nc1-c1cccc(Cl)c1Cl", "values": [{"measurement": "IC50", "setting": "[5]", "value": 0.007, "unit": "µM"}]}, {"smiles": "O=C(O)c1ccccc1-c1ccc(/C=c2/sc3nc4cc(Br)cnc4n3c2=O)o1", "values": [{"measurement": "IC5", "setting": "[6]", "value": 1.1, "unit": "µM"}]}, {"smiles": "NCC1CCN(c2ncc(-c3cccc(Cl)c3Cl)cc2CO)CC1", "values": [{"measurement": "IC50", "setting": "[7]", "value": 1.36, "unit": "µM"}, {"measurement": "IC5", "setting": "[8]", "value": 100, "unit": "µM"}, {"measurement": "IC50", "setting": "[9]", "value": 2.35, "unit": "µM"}]}, {"smiles": "CCOC(=O)c1sc(-c2ccc(OC)cc2)nc1COc1ccc(Cl)cc1", "values": [{"measurement": "IC50", "setting": "[1]", "value": 0.99, "unit": "µM"}]}, {"smiles": "CC(=O)O[C@H]1CC[C@]2(C)c3c(O)c4c(c(O)c3C(=O)CC2C1(C)C)C[C@H](C)O4", "note": "(some centres undefined)", "values": [{"measurement": "IC50", "setting": "[10]", "value": 8.79, "unit": "µM"}, {"measurement": "IC50", "setting": "[11]", "value": 10.8, "unit": "µM"}]}, {"smiles": "O=C1/C(=N/Nc2ccc(S(=O)(=O)O)cc2)C(c2ccc([N+](=O)[O-])cc2)=NN1c1ccc([N+](=O)[O-])cc1", "values": [{"measurement": "IC50", "setting": "[12]", "value": 0.071, "unit": "µM"}]}, {"smiles": "C/C(=C\\[C@H](O)C[C@@H](C)[C@H]1CC[C@@]2(C)[C@@H]3CC[C@H]4C(C)(C)[C@@H](O)CC[C@@]45C[C@@]35CC[C@]12C)C(=O)O", "values": [{"measurement": "IC50", "setting": "[13]", "value": 19, "unit": "µM"}]}, {"smiles": "CCCCCCCCCCCC(=O)C1=C2C3=COC(C)=CC3=CC(=O)[C@]2(C)OC1=O", "values": [{"measurement": "IC50", "setting": "[14]", "value": 0.8, "unit": "µM"}]}, {"smiles": "CC1(N)CCN(c2cnc(-c3cccc(Cl)c3Cl)c(N)n2)CC1", "values": [{"measurement": "IC50", "setting": "[9]", "value": 19.9, "unit": "µM"}, {"measurement": "IC50", "setting": "[15]", "value": 38, "unit": "µM"}, {"measurement": "IC50", "setting": "[16]", "value": 15.7, "unit": "µM"}]}, {"smiles": "CCCCCCCCCC[C@@H](C)C(=O)C1=C2C3=COC(C)=CC3=CC(=O)[C@]2(C)OC1=O", "values": [{"measurement": "IC50", "setting": "[14]", "value": 0.7, "unit": "µM"}]}]}
